Measured values published in ChEMBL document CHEMBL1150504, “Pharmacological evaluation of combined PGI2 agonists/thromboxane synthase inhibitors. I” (Bioorg Med Chem Lett, 1995).
pIC50: −log10 of the molar value.

Legend:
Homo sapiens [1] = species on record: Homo sapiens; experiment: PGI-2 agonistic activity by measuring inhibition of 4 uM ADP-induced human platelet aggregation; format: functional
Thromboxane-A synthase [2] = target: T1, Thromboxane-A synthase (Homo sapiens, UniProt P24557); experiment: Inhibitory activity against Thromboxane A2 synthase in human platelet microsome
T1 sequence (P24557 whole entry): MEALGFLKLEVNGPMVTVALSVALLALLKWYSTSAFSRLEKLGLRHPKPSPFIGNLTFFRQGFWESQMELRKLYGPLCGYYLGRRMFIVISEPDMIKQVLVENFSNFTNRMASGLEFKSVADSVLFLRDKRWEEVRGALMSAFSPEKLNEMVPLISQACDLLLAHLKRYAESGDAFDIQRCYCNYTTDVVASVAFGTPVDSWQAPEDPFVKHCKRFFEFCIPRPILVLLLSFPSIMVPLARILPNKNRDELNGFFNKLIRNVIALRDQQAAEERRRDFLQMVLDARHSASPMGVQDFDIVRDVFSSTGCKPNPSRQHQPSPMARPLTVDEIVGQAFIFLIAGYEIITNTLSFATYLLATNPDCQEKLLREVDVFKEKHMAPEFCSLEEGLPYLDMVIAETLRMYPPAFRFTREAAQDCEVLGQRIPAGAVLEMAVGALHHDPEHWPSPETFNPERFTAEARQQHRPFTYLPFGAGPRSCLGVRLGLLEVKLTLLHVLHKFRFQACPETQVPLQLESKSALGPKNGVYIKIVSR

Thromboxane-A synthase [3] = target: T1, Thromboxane-A synthase; experiment: Inhibitory activity against Thromboxane A2 synthase in human platelet microsome; inactive
Homo sapiens [4] = species on record: Homo sapiens; experiment: PGI-2 agonistic activity by measuring inhibition of 4 uM ADP-induced human platelet aggregation; Inactive; format: functional
Thromboxane-A synthase [5] = target: T1, Thromboxane-A synthase; experiment: Inhibitory activity against Thromboxane A2 synthase in human platelet microsome; Inactive

For `O=C(O)COc1cccc2c1CCC(Cn1cc(C(c3ccccc3)c3ccccc3)cn1)C2` (stereo not drawn), the pIC50 (Homo sapiens [1]) was 6.89 and the IC50 (Thromboxane-A synthase [2]) was “Not Active”.

Work on `C/C(CC1CCc2c(cccc2OCC(=O)O)C1)=N\OC(c1ccccc1)c1cccnc1` (stereo not drawn) yielded a pIC50 (Homo sapiens [1]) of 5.85.

With `CC#CCC(C)[C@H](O)/C=C/[C@@H]1[C@H]2C/C(=C/CCCC(=O)O)C[C@H]2C[C@H]1O` (stereo partly drawn) [ILOPROST] the pIC50 (Homo sapiens [1]) was 8.85 and the IC50 (Thromboxane-A synthase [3]) was “Not Active”.

In the case of `C/C(=C\c1ccc(Cc2cccnc2)cc1)C(=O)[O-].[Na+]` [ONO-1581], the IC50 (Homo sapiens [4]) was “Not Active”.

`C/C(CC1CCc2c(cccc2OCC(=O)O)C1)=N\OC(c1ccccc1)c1ccncc1` (stereo not drawn) gave a pIC50 (Homo sapiens [1]) of 6.32.

For `O=C(O)COc1cccc2c1CCCC2CCON=C(c1ccccc1)c1ccccc1` (stereo not drawn), the IC50 (Thromboxane-A synthase [5]) was “Not Active”.

In the case of `O=C(O)COc1cccc2c1CCCC2CCO/N=C(\c1ccccc1)c1cccnc1` (stereo not drawn), the pIC50 (Homo sapiens [1]) was 6.62.

Work on `O=C(O)COc1cccc2c1CCC(Cn1cc(C(c3ccccc3)c3cccnc3)cn1)C2` (stereo not drawn) yielded a pIC50 (Homo sapiens [1]) of 6.82.

In the case of `C/C(CC1CCc2c(cccc2OCC(=O)O)C1)=N\OC(c1ccccc1)c1ccccc1` (stereo not drawn), the IC50 (Thromboxane-A synthase [5]) was “Not Active” and the pIC50 (Homo sapiens [1]) was 6.64.

With `C/C(CC1CCc2c(cccc2OCC(=O)O)C1)=N\OC(c1ccccc1)c1ccccn1` (stereo not drawn) the pIC50 (Homo sapiens [1]) was 6.24.

For `CCC/C(CC1CCc2c(cccc2OCC(=O)O)C1)=N\OC(c1ccccc1)c1ccccc1` (stereo not drawn) [AP-227], the IC50 (Thromboxane-A synthase [2]) was “Not Active”.

Work on `CCC/C(CC1CCc2c(cccc2OCC(=O)O)C1)=N\OC(c1ccccc1)c1cccnc1` (stereo not drawn) yielded a pIC50 (Homo sapiens [1]) of 6.49.

`O=C(O)COc1cccc2c1CCCC2CCC(=O)NN(c1ccccc1)c1ccccc1` (stereo not drawn) was tested, and the IC50 (Thromboxane-A synthase [2]) was “Not Active”.

In the case of `O=C(O)/C=C/c1ccc(Cn2ccnc2)cc1` [OZAGREL], the IC50 (Homo sapiens [4]) was “Not Active”.

Work on `O=C(O)COc1cccc2c1CCCC2CCC(=O)NN(c1ccccc1)c1cccnc1` (stereo not drawn) yielded a pIC50 (Homo sapiens [1]) of 6.36.
